Data set [1] concerns Leishmania infantum. Put plainly: Antiparasitic activity against Leishmania infantum amastigote expressing Escherichia coli beta-galactosidase infected in mouse RAW264.7 cells assessed as reduction in parasitic growth using CPRG as substrate preincubated with compound for 24 hrs followed by substrate addition and measured after 2 to 6 hrs by Spectrophotometric analysis. The data set is classed as functional, organism-based.

Data set [2] is described as follows: Cytotoxicity against mouse RAW264.7 cells assessed as inhibition of cell viability incubated for 48 hrs by MTT assay. It counts as toxicity, cell-based. In general terms: Formazan colour is commonly taken as a measure of viable cells.
Data set [3] has as its system Trypanosoma cruzi. As to the kind of experiment: Antiparasitic activity against amastigote form of Trypanosoma cruzi Tulahuen expressing Escherichia coli beta-galactosidase infected in mouse L929 cells assessed as reduction in parasitic growth using CPRG as substrate pretreated with compound for 96 hrs followed by substrate addition and measured after 16 to 20 hrs by Spectrophotometric analysis. It counts as functional, organism-based.

Data set [4] concerns Leishmania infantum. Put plainly: Antiparasitic activity against Leishmania infantum MHOM/MA/67/ITMAP-263 promastigote expressing Escherichia coli beta-galactosidase assessed as reduction in parasitic growth using CPRG as substrate preincubated with compound for 72 hrs followed by substrate addition and measured after 10 mins by Spectrophotometric analysis. It counts as functional, organism-based.

Data set [5] has as its system Trypanosoma cruzi. Put plainly: Antiparasitic activity against trypomastigote form of Trypanosoma cruzi Tulahuen expressing Escherichia coli beta-galactosidase infected in mouse L929 cells assessed as reduction in parasitic growth using CPRG as substrate pretreated with compound for 96 hrs followed by substrate addition and measured after 16 to 20 hrs by Spectrophotometric analysis. It counts as functional, organism-based.

The nature of data set [6]: Cytotoxicity against mouse L929 cells assessed as inhibition of cell viability incubated for 96 hrs by MTT assay. It counts as toxicity, cell-based.
Data set [7] can be described thus: Selectivity index, ratio of CC50 for mouse RAW264.7 cells to IC50 for antiparasitic activity against Leishmania amazonensis amastigote expressing Escherichia coli beta-galactosidase infected in mouse RAW264.7 cells. The data set is classed as toxicity. Conditions: read-out: Selectivity Index.
A short description of data set [8]: Selectivity index, ratio of CC50 for mouse RAW264.7 cells to IC50 for antiparasitic activity against Leishmania infantum amastigote expressing Escherichia coli beta-galactosidase infected in mouse RAW264.7 cells. It counts as toxicity. Conditions: read-out: Selectivity Index.
Data set [9] in a line: Selectivity index, ratio of CC50 for mouse RAW264.7 cells to IC50 for antiparasitic activity against Leishmania amazonensis WHOM/00 LTB 0016 promastigote expressing Escherichia coli beta-galactosidase. It counts as toxicity. Conditions: read-out: Selectivity Index.
The subject of data set [10] is Leishmania amazonensis. As to the kind of experiment: Antiparasitic activity against Leishmania amazonensis amastigote expressing Escherichia coli beta-galactosidase infected in mouse RAW264.7 cells assessed as reduction in parasitic growth using CPRG as substrate preincubated with compound for 24 hrs followed by substrate addition and measured after 2 to 6 hrs by Spectrophotometric analysis. The data set is classed as functional, organism-based.

The nature of data set [11]: Selectivity index, ratio of CC50 for mouse L929 cells to IC50 for antiparasitic activity against trypomastigote and amastigote form of Trypanosoma cruzi Tulahuen expressing Escherichia coli beta-galactosidase infected in mouse L929 cells. The data set is classed as toxicity. Conditions: read-out: Selectivity Index.
The nature of data set [12]: Selectivity index, ratio of CC50 for mouse RAW264.7 cells to IC50 for antiparasitic activity against Leishmania infantum MHOM/MA/67/ITMAP-263 promastigote expressing Escherichia coli beta-galactosidase. Conditions: read-out: Selectivity Index. The data set is classed as toxicity.
The test system of data set [13] is Leishmania amazonensis. Put plainly: Antiparasitic activity against Leishmania amazonensis WHOM/00 LTB 0016 promastigote expressing Escherichia coli beta-galactosidase assessed as reduction in parasitic growth using CPRG as substrate preincubated with compound for 72 hrs followed by substrate addition and measured after 10 mins by Spectrophotometric analysis. The data set is classed as functional, organism-based.

[14] abbreviates: Leishmania infantum, RAW264.7, read-out: IC50.
The mark [15] stands for this setting: Leishmania infantum, MHOM/MA/67/ITMAP-263, read-out: IC50.
[16] abbreviates: Leishmania amazonensis, RAW264.7, read-out: IC50.
The mark [17] stands for this setting: Leishmania amazonensis, WHOM/00 LTB 0016, read-out: IC50.

Broadly, the IC50 is the point on the concentration scale where inhibition reaches its midpoint. As usually defined, the CC50 is the concentration at which the toxic effect on the cells reaches its halfway point.

Regarding `C/C(=N\N=c1\scc(-c2ccc([N+](=O)[O-])cc2)n1-c1ccccc1)c1cccnc1`, the IC50 was 9.1 µM in data set [1] (setting [14]); 2900 nM in [3]; 118 µM in data set [4] (setting [15]); 2900 nM in data set [5]; 7.7 µM in data set [10] (setting [16]); 18.5 µM in data set [13] (setting [17]). In data set [2], the CC50 at 48 h was 22.1 µM. For the same molecule, the half-maximal cytotoxic concentration (CC50) at 96 h in data set [6] stood at 25.8 µM. The selectivity ratio amounted to 2.9 in data set [7]; 2.4 in [8]; 1.2 in data set [9]; 8.9 in data set [11]; 0.2 in data set [12].
For `C/C(=N\N=c1\scc(-c2ccc(C)cc2)n1-c1ccccc1)c1cccnc1`, the IC50 turned out to be 16.1 µM in data set [1] (setting [14]); 3400 nM in data set [3]; 14.8 µM in data set [4] (setting [15]); 3400 nM in data set [5]; 7.3 µM in [10] (setting [16]); 4.4 µM in data set [13] (setting [17]). Also, the CC50 at 48 h in [2] worked out at 18.7 µM. Also, the CC50 at 96 h in [6] is 7.3 µM. Besides, the selectivity ratio in data set [7] was 2.6; in data set [8], 1.2; in data set [9] it was 4.2; in data set [11] it was 2.1; in [12], 1.3.
With `C/C(=N\N=c1/[nH]c(-c2ccc(F)cc2)cs1)c1cccnc1`, the IC50 result in [1] (raw264.7) was “Not_active”; in data set [3] it was 3800 nM; in data set [4], “Not_active”; in data set [5], 3800 nM; in data set [10] (setting [16]), 44.7 µM; in [13], “Not_active”. In [2], the CC50 at 48 h was determined as 52.3 µM. In [6], the CC50 at 96 h is above 320 µM. The figures for the selectivity ratio in data set [7] and in [11] were 0.6 and above 84.2, respectively.
Take `C/C(=N\N=c1\scc(-c2ccc(F)cc2)n1-c1ccccc1)c1cccnc1`: the IC50 came to 10.8 µM in data set [1] (setting [14]); 7500 nM in [3]; 29.9 µM in data set [4] (setting [15]); 7500 nM in [5]; 6.7 µM in data set [10] (setting [16]); 7.2 µM in data set [13] (setting [17]). In addition, the CC50 at 48 h in data set [2] worked out at 41.2 µM. The CC50 at 96 h in data set [6] was 14.4 µM. The selectivity ratio in [7] was found to be 6.1; in data set [8] it was 3.8; in data set [9] it was 5.7; in data set [11] it was 1.9; in data set [12], 1.4.
On to `COc1ccc(-c2cs/c(=N/N=C(\C)c3cccnc3)n2-c2ccccc2)cc1`, for which the IC50 in [1] (setting [14]) is 9.5 µM; in data set [3] it was below 200 nM; in data set [4] (setting [15]), 16.7 µM; in data set [5] it was below 200 nM; in data set [10] (setting [16]), 6 µM; in [13] (setting [17]) it was 5.2 µM. For the same molecule, in data set [2], the CC50 at 48 h was 22 µM. In [6], the CC50 at 96 h turned out to be 5.2 µM. In addition, the selectivity ratio in [7] was 3.7; in data set [8], 2.3; in [9] it was 4.2; in [11] it was above 26; in data set [12], 1.3.
In the case of `C/C(=N\NC(N)=S)c1cccnc1`, the IC50 in [1] (setting [14]) was 163 µM; in [4], “Not_active”; in data set [10] (setting [16]), 275 µM; in data set [13], “Not_active”. Further, in [2], the CC50 at 48 h turned out to be 213 µM. Moreover, the selectivity ratio in data set [7] was determined as 0.8; in [8], 1.3.
Turning to `C/C(=N\N=c1\scc(-c2cccc([N+](=O)[O-])c2)n1-c1ccccc1)c1cccnc1`, the IC50 in [1] (setting [14]) was found to be 11.5 µM; in data set [3] it was 2900 nM; in [4] (setting [15]), 23.3 µM; in data set [5], 2900 nM; in [10] (setting [16]), 9.4 µM; in data set [13] (setting [17]) it was 6.5 µM. Also, in [2], the 50% cytotoxic concentration (CC50) at 48 h is above 240 µM. Moreover, in data set [6], the CC50 at 96 h stood at 18.3 µM. Besides, the selectivity ratio is above 25.6 in [7]; above 20.8 in [8]; above 37 in data set [9]; 6.3 in data set [11]; above 10.3 in data set [12].
For the molecule `C/C(=N\N=c1\scc(-c2ccc([N+](=O)[O-])cc2)n1C)c1cccnc1`, the IC50 result in data set [1] (raw264.7) is “Not_active”; in [3], 2500 nM; in data set [4] (setting [15]), 200 µM; in [5], 2500 nM; in data set [10] (raw264.7), “Not_active”; in data set [13] (setting [17]), 168 µM. The CC50 at 48 h in data set [2] stood at 41.2 µM. Also, in data set [6], the CC50 at 96 h stood at 88.6 µM. Besides, the selectivity ratio in [9] came out at 0.2; in data set [11], 35.4; in data set [12], 0.2.
`C/C(=N\N=c1/[nH]c(-c2ccc([N+](=O)[O-])cc2)cs1)c1cccnc1`: the IC50 is 45.6 µM in [1] (setting [14]); 59400 nM in [3]; “Not_active” in data set [4]; 59400 nM in data set [5]; 295 µM in data set [10] (setting [16]); “Not_active” in data set [13]. Besides, in data set [2], the CC50 at 48 h worked out at 63.6 µM. Moreover, the CC50 at 96 h in data set [6] was above 295 µM. In addition, the figures for the selectivity ratio in data set [7], in [8] and in data set [11] were 0.2, 1.4 and above 5, respectively.
`CCCCCCCCCCCCCCCCOP(=O)([O-])OCC[N+](C)(C)C` [MILTEFOSINE]: the IC50 in [1] (setting [14]) worked out at 1.7 µM; in data set [4] (setting [15]) it was 3.2 µM; in data set [10] (setting [16]) it was 1.7 µM. Moreover, the selectivity ratio is 13.1 in [7], 12.7 in [8], 6.8 in data set [9] and 6.8 in data set [12].
Consider `CNC(=S)N/N=C(\C)c1cccnc1`, for which the IC50 result in data set [1] (raw264.7) is “Not_active”; in [4], “Not_active”; in data set [10] (setting [16]), 183 µM; in [13] (setting [17]) it was 339 µM. Further, the CC50 at 48 h in data set [2] was found to be 148 µM. In addition, the selectivity ratio in data set [7] stood at 0.8; in data set [9], 0.4.
In the case of `C[C@@H]1[C@H](O)[C@@H](C)/C=C/C=C/C=C/C=C/C=C/C=C/C=C/[C@H](O[C@@H]2O[C@H](C)[C@@H](O)[C@H](N)[C@@H]2O)C[C@@H]2O[C@](O)(C[C@@H](O)C[C@@H](O)[C@H](O)CC[C@@H](O)C[C@@H](O)CC(=O)O[C@H]1C)C[C@H](O)[C@H]2C(=O)O` [AMPHOTERICIN B], the IC50 in [1] (setting [14]) was 0.06 µM; in [4] (setting [15]) it was 0.2 µM; in data set [10] (setting [16]), 0.04 µM; in [13] (setting [17]), 0.1 µM. Besides, in data set [2], the CC50 at 48 h amounted to 3.5 µM. For the same molecule, the selectivity ratio in data set [7] was 87.5; in data set [8], 58.3; in data set [9], 35; in [12], 17.5.
`C/C(=N\N=c1\scc(-c2cccc([N+](=O)[O-])c2)n1C)c1cccnc1`: the IC50 in data set [1] (setting [14]) is 33.3 µM; in [3] it was 1000 nM; in [4], “Not_active”; in data set [5] it was 1000 nM; in [10] (raw264.7) it was “Not_active”; in data set [13] it was “Not_active”. The CC50 at 48 h in data set [2] was determined as 17.5 µM. Besides, the CC50 at 96 h in [6] stood at 13.3 µM. Also, the values for the selectivity ratio in data set [8] and in data set [11] were 0.5 and 13.3, respectively.
For the molecule `C/C(=N\NC(=S)Nc1ccccc1)c1cccnc1`, the IC50 in data set [1] (setting [14]) amounted to 21.1 µM; in data set [4] (setting [15]), 21.8 µM; in data set [13] (setting [17]) it was 7 µM. Besides, the selectivity ratio amounted to 4.5 in [8], 13.7 in data set [9] and 4.4 in data set [12].
